# Assay results from patent US20100267697A1, “ION CHANNEL MODULATORS” (Wyeth, priority 2006, published 2010).
# Structures can show the parent of a compound that is named as a salt. Where two headings read alike, the source gives them in different places.
# Tests used:
# Format in all cases: cell-based
# Cav2.2 [1] = target: T1, Cav2.2 (Homo sapiens, UniProt Q00975); experiment: HEK assay (whole-cell patch clamp, transiently transfected HEK-293T/17 cells, pulses P1 and P5); settings: holding potential −100 mV
# T1 construct: expressed in transfected cells; host or cells: HEK-293T/17 (transient, FuGENE 6)
# In short: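 Whole-cell voltage clamp of HEK-293T/17 cells transiently transfected via FuGENE 6, then grown 24 h in 1% serum before recording. From −100 mV holding, trains of five 20–30 ms steps to about +10 mV at 5 Hz, repeated every 30 s; steady-state IC50s taken at first (P1) and fifth (P5) pulses to gauge use-dependent block.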
# Cav2.2 [2] = target: Cav2.2 (UniProt Q02294); experiment: Oocyte assay (Xenopus oocyte heterologous expression, current at fifth pulse P5); settings: Xenopus oocytes; fifth pulse (P5) of 5 Hz train, holding potential −100 mV
# Procedure: The assay was performed on various calcium channels (e.g., Cav2.2 subfamily) whereby the modulation of the calcium channel was measured for each tested compound.
# [3] = target: T2, human Cav2.2 (composed of the subunits α1, β3 and α2δ) (Homo sapiens, UniProt Q00975); experiment: FLIPR assay (TSA201 cells stably transfected with human Cav2.2 and human Kir2.3, FLUO-4 Ca2+ signal, KCl depolarization); settings: 70 mM KCl depolarization, average value
# T2 construct: expressed in transfected cells
# In short: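 TSA201 cells co-expressing Cav2.2 (α1, β3, α2δ) and Kir2.3 were loaded with FLUO-4 for 1 h at room temperature. Compound in HBSS with 1% DMSO was preincubated 15 min, then cells were depolarized with 70 mM final KCl (with CaCl2 and HEPES) and the Ca2+ fluorescence was read on FLIPR.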
# [4] = fifth pulse (P5) of 5 Hz train, read-out: HEK Cav2.2 P5 IC50
# [5] = first pulse (P1) of 5 Hz train, read-out: HEK Cav2.2 P1 IC50
# T2 sequence (Q00975 whole entry): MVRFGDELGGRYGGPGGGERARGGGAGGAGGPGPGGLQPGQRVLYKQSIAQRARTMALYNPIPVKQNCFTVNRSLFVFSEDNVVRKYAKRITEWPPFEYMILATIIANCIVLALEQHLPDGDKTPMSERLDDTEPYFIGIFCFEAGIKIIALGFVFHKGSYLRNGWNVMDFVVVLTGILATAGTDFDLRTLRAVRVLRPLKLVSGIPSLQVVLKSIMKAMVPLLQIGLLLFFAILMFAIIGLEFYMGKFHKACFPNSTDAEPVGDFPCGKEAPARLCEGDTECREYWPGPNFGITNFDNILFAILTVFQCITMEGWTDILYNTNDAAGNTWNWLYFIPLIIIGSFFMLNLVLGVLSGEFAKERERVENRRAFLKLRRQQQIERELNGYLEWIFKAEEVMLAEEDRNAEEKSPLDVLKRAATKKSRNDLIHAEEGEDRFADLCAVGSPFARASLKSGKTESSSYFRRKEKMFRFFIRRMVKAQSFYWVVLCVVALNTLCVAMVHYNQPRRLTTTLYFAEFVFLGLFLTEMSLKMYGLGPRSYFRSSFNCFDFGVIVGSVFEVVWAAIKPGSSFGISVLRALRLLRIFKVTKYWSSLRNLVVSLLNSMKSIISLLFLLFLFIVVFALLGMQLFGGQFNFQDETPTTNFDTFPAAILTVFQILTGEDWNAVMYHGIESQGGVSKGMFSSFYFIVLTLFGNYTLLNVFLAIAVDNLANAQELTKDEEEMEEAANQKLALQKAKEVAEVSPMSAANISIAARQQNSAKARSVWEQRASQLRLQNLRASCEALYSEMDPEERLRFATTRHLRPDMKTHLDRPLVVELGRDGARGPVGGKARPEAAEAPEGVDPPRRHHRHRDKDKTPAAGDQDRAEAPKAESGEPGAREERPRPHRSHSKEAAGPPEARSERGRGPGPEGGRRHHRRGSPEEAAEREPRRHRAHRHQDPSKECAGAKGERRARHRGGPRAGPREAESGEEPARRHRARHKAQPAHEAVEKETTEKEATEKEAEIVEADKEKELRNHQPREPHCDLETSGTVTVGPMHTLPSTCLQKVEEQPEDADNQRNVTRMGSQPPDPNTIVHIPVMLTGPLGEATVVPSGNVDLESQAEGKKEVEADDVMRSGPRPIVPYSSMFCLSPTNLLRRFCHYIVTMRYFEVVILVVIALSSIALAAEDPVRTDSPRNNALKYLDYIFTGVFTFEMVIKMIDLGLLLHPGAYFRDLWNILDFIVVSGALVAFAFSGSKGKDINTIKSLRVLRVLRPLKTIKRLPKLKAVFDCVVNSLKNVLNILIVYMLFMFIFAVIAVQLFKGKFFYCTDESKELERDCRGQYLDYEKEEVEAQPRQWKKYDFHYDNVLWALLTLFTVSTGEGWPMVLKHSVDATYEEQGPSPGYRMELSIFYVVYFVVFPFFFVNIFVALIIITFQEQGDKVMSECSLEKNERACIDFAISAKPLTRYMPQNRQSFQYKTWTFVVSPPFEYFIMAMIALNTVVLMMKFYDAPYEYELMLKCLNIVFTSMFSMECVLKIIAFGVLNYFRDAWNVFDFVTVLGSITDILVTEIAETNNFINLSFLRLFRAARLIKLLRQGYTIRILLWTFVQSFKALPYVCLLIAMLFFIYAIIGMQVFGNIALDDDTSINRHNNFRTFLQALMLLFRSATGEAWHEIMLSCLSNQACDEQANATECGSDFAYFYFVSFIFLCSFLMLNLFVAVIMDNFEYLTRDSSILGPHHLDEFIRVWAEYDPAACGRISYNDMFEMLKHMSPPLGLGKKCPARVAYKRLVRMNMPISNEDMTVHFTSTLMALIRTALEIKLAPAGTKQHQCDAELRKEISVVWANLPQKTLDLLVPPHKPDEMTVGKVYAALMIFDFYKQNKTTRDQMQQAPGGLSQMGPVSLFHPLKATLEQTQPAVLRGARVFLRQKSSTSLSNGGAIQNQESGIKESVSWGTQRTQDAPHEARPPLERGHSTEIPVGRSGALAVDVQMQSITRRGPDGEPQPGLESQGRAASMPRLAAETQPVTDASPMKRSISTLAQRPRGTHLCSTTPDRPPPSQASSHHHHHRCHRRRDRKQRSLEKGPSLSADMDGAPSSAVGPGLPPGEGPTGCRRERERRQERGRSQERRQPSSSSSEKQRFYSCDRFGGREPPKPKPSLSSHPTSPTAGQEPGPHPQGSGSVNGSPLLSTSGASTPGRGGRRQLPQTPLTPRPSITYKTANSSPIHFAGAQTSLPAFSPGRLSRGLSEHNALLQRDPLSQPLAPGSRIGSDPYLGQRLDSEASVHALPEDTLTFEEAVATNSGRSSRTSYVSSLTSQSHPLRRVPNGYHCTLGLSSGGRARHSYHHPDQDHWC
# T2 sequence (P54284 whole entry partner): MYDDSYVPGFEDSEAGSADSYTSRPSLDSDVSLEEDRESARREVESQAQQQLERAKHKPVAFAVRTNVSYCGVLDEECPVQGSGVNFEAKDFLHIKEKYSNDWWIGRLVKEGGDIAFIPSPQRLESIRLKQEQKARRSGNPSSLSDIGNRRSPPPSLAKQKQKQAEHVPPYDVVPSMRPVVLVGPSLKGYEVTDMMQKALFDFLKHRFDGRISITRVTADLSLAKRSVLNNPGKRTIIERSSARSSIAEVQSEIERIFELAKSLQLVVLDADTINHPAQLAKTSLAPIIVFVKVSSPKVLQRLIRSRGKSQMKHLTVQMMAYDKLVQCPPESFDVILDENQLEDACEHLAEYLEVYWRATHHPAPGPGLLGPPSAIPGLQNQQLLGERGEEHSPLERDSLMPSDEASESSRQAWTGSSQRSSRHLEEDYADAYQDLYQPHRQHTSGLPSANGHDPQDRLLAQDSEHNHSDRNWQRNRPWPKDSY
# T2 sequence (P54289 25-946 partner limits assumed): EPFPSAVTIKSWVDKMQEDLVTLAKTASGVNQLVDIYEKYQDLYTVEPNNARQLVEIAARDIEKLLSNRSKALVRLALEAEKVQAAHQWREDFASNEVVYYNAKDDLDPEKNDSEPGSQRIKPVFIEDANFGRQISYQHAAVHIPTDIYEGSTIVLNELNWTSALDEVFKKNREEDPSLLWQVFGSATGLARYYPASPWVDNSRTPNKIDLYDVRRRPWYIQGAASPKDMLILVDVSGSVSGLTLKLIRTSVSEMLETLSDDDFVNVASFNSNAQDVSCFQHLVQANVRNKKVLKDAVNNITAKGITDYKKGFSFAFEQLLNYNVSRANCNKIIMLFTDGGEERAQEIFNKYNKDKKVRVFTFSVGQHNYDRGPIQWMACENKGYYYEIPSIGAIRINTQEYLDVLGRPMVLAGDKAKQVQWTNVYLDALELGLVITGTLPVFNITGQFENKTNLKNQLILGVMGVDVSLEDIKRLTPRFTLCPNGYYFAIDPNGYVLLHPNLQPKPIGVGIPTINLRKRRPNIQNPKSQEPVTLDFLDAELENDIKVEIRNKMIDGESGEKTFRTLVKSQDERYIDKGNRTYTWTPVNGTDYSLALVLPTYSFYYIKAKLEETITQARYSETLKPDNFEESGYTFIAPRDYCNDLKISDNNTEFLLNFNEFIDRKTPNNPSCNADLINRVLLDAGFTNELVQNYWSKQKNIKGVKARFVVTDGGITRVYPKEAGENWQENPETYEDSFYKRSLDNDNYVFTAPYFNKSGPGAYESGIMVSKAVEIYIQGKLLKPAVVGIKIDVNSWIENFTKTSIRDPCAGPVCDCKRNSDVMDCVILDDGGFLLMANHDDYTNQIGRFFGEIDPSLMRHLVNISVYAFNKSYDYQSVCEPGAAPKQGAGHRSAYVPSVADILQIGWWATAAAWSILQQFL
# T2 sequence (P54289 947-1103 partner limits assumed): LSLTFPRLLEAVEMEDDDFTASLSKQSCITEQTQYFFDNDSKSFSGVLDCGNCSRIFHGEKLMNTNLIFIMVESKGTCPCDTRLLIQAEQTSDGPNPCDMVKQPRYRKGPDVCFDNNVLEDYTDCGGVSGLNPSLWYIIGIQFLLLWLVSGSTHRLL
# T1 sequence (Q00975 whole entry): as the sequence (Q00975 whole entry) above
# T1 sequence (P54284 whole entry partner): as the sequence (P54284 whole entry partner) above
# T1 sequence (P54289 25-946 partner limits assumed): as the sequence (P54289 25-946 partner limits assumed) above
# T1 sequence (P54289 947-1103 partner limits assumed): as the sequence (P54289 947-1103 partner limits assumed) above
Structure (SMILES),IC50 (Cav2.2 [1]; [4]) [µM],IC50 (Cav2.2 [1]; [5]) [µM],IC50 (Cav2.2 [2]) [µM],IC50 [3] [µM]
"CCN(CC)c1nc(CN(C(=O)C(C)(C)C)c2ccc(F)cc2)cs1 [Compound 64, N-(2-Diethylamino-thiazol-4-ylmethyl)-N-(4-fluorophenyl)-2,2-dimethyl-propionamide]",2.4,6,18.3,
"CCC(C)(C)C(=O)N(Cc1ccc(N(C)CCc2ccccn2)nc1)c1ccc(F)cc1 [Compound 24, N-(4-Fluorophenyl)-2,2-dimethyl-N-{6-[methyl-(2-pyridin-2-yl-ethyl)-amino]-pyridin-3-ylmethyl}-butyramide]",0.6,2.9,3.8,
"CN(c1ccccn1)c1nc(CN(C(=O)C(C)(C)C)c2ccc(F)cc2)cs1 [Compound 93, N-(4-Fluorophenyl)-2,2-dimethyl-N-[2-(methyl-pyridin-2-yl-amino)-thiazol-4-ylmethyl]-propionamide]",0.4,0.8,22.8,
"CCN(c1nc(CN(C(=O)C(C)(C)C)c2ccc(F)cc2)cs1)C1CC1 [Compound 83, N-[2-(Cyclopropyl(ethyl)amino)-thiazol-4-ylmethyl]-N-(4-fluorophenyl)-2,2-dimethyl-propionamide]",1,3.3,7.1,
"CCN(CC)c1ccc(CN(C(=O)C2CCOCC2)c2ccc(F)cc2)cn1 [Compound 113, Tetrahydro-pyran-4-carboxylic acid (6-diethylamino-pyridin-3-ylmethyl)-(4-fluorophenyl)-amide]",,,30,
"CCN(CC)c1ccc(CN(C(=O)C(C)(C)CC)c2ccc(F)cc2)cn1 [Compound 31, N-(6-Diethylamino-pyridin-3-ylmethyl)-N-(4-fluorophenyl)-2,2-dimethyl-butyramide]",1.3,5.5,6.6,
"CCN(CC)c1ccc(CN(C(=O)C2CCOC2)c2ccc(F)cc2)cn1 (stereo not drawn) [Compound 112, Tetrahydro-furan-3-carboxylic acid (6-diethylamino-pyridin-3-ylmethyl)-(4-fluorophenyl)-amide]",,,37,
"CN(C)c1ccc(N(Cc2csc(N(C)c3ccc(F)cc3)n2)C(=O)C(C)(C)C)cc1 [Compound 81, N-(4-Dimethylamino-phenyl)-N-{2-[(4-fluorophenyl)-methyl-amino]-thiazol-4-ylmethyl}-2,2-dimethyl-propionamide]",0.6,2,1.7,
"CCN(c1nc(CN(C(=O)C(C)(C)C)c2ccccc2F)cs1)C1CC1 [Compound 169, N-({2-[cyclopropyl(ethyl)amino]-1,3-thiazol-4-yl}methyl)-N-(2-fluorophenyl)-2,2-dimethylpropanamide]",,,,5.7
"Cc1cc(F)ccc1N(Cc1cnc(N2CCCCC2)nc1)C(=O)[C@@H]1CCCN1 [Compound 120, N-(4-fluoro-2-methylphenyl)-N-[(2-piperidin-1-ylpyrimidin-5-yl)methyl]-L-prolinamide]",,,,13.7
"CC(=O)N(Cc1ccc(N2CCC(CO)CC2)nc1)C1CCCC1 [Compound 235, N-cyclopentyl-N-({6-[4-(hydroxymethyl)piperidin-1-yl]pyridin-3-yl}methyl)acetamide]",,,,36.4
"CC(C)(C)C(=O)N(CCc1csc(N2CCOCC2)n1)c1ccc(F)cc1 [Compound 212, N-(4-flurophenyl)-2,2-dimethyl-N-[2-(2-morpholin-4-yl-1,3-thiazol-4-yl)ethyl]propanamide]",,,,5.9
"CC(C)(C)OC(=O)N1CC[C@@H](C(=O)N(Cc2ccc(Cl)nc2)c2ccc(F)cc2)C1 [Compound 255, tert-butyl (3R)-3-{[(6-chloropyridin-3-yl)methyl](4-fluorophenyl)carbamoyl}pyrrolidine-1-carboxylate]",,,,2.8
"CC(C)(C)C(=O)N(Cc1csc(-c2ccc(O)cc2)n1)c1ccc(F)cc1 [Compound 244, N-(4-fluorophenyl)-N-{[2-(4-hydroxyphenyl)-1,3-thiazol-4-yl]methyl}-2,2-dimethylpropanamide]",,,,7.3
"CC(C)(C)C(=O)N(Cc1csc(-c2ccccc2O)n1)c1ccc(F)cc1 [Compound 246, N-(4-fluorophenyl)-N-{[2-(2-hydroxyphenyl)-1,3-thiazol-4-yl]methyl}-2,2-dimethylpropanamide]",,,,7.2

# Further lines, results first:
IC50 (Cav2.2 [1]; [4]) [µM],IC50 (Cav2.2 [1]; [5]) [µM],IC50 (Cav2.2 [2]) [µM],IC50 [3] [µM],Structure (SMILES)
2.1,18.6,23.2,,"O=C(C1CCOC1)N(Cc1ccc(N2CCN(c3ccccn3)CC2)nc1)c1ccc(F)cc1 (stereo not drawn) [Compound 111, Tetrahydro-furan-3-carboxylic acid (4-fluorophenyl)-[6-(4-pyridin-2-yl-piperazin-1-yl)-pyridin-3-ylmethyl]-amide]"
1.4,4.4,13.2,,"CCC(C)(C)C(=O)N(Cc1ccc(N2CCN(C)CC2)nc1)c1ccccc1C(C)C [Compound 35, N-(2-Isopropyl-phenyl)-2,2-dimethyl-N-[6-(4-methyl-piperazin-1-yl)-pyridin-3-ylmethyl]-butyramide]"
1.9,7.4,16.2,,"CN(C)c1ccc(N(Cc2cnc(N3CCCCC3)nc2)C(=O)C(C)(C)C)cc1 [Compound 85, N-(4-Dimethylamino-phenyl)-2,2-dimethyl-N-(2-piperidin-1-yl-pyrimidin-5-ylmethyl)-propionamide]"
1.7,4,7.1,,"CN(CCc1ccccn1)c1ccc(CN(C(=O)C(C)(C)C)c2ccc(F)cc2)cn1 [Compound 18, N-(4-Fluorophenyl)-2,2-dimethyl-N-{6-[methyl-(2-pyridin-2-yl-ethyl)-amino]-pyridin-3-ylmethyl}-propionamide]"
1.1,4.6,5.2,,"CN(CCc1cccnc1)c1ccc(CN(C(=O)C(C)(C)C)c2ccc(F)cc2)cn1 [Compound 27, N-(4-Fluorophenyl)-2,2-dimethyl-N-{6-[methyl-(2-pyridin-3-yl-ethyl)-amino]-pyridin-3-ylmethyl}-propionamide]"
5.7,27.8,18.3,,"CN1CCCN(c2ccc(CN(C(=O)C(C)(C)C)c3ccc(F)cc3)cn2)CC1 [Compound 22, N-(4-Fluorophenyl)-2,2-dimethyl-N-[6-(4-methyl-[1,4]diazepan-1-yl)-pyridin-3-ylmethyl]-propionamide]"
2,16.8,16.9,,"CC(C)(C)C(=O)N(Cc1csc(N2CCCCC2)n1)c1ccc(F)cc1 [Compound 2, N-(4-fluorophenyl)-2,2-dimethyl-N-(2-piperidin-1-yl-thiazol-4-ylmethyl)-propionamide hydrochloride]"
,,44,,"CN1CCN(c2ccc(CN(C(=O)NC(C)(C)C)c3ccc(F)cc3)cn2)CC1 [Compound 11, 3-tert-butyl-1-(4-fluorophenyl)-1-(6-(4-methyl-piperazin-1-yl)-pyridin-3-ylmethyl)-urea hydrochloride]"
,,129,,"CN1CCN(c2ccc(CN(C(=O)C3CC3)c3ccc(F)cc3)cn2)CC1 [Compound 103, Cyclopropanecarboxylic acid (4-fluorophenyl)-[6-(4-methyl-piperaizn-1-yl)-pyridin-3-ylmethyl]-amide]"
5.2,22.2,35.5,,"CN(CCN1CCOCC1)c1ccc(CN(C(=O)C(C)(C)C)c2ccc(F)cc2)cn1 [Compound 20, N-(4-Fluorophenyl)-2,2-dimethyl-N-{6-[methyl-(2-morpholin-4-yl-ethyl)-amino]-pyridin-3-ylmethyl}-propionamide]"
1.6,5.1,8.7,,"CC(C)(C)C(=O)N(Cc1cnc(N2CCCCC2)nc1)c1ccc(F)cc1 [Compound 8, N-(4-fluorophenyl)-2,2-dimethyl-N-(2-piperidin-1-yl-pyrimidin-5-ylmethyl)-propionamide hydrochloride]"
2.6,24.5,21.2,,"Cc1cc(C)cc(N(Cc2ccc(N3CCN(C)CC3)nc2)C(=O)C(C)(C)C)c1 [Compound 32, N-(3,5-dimethylphenyl)-2,2-dimethyl-N-[6-(4-methyl-piperazin-1-yl)-pyridin-3-ylmethyl]-propionamide]"
,,41.9,,"CN1CCN(c2ccc(CN(C(=O)C(C)(C)C)c3ccc(F)cc3)cn2)CC1 [Compound 17, N-(4-Fluorophenyl)-N-[6-(4-methyl-piperazin-1-yl)-pyridin-3-ylmethyl)-2,2-dimethyl-propionamide]"
,,86,,"CN1CCN(c2ccc(CN(C(=O)C3CCCO3)c3ccc(F)cc3)cn2)CC1 (stereo not drawn) [Compound 16, TETRAHYDRO-FURAN-2-CARBOXYLIC ACID (4-FLUOROPHENYL)-(6-(4-METHYL-PIPERAZIN-1-YL)-PYRIDIN-3-YLMETHYL)-AMIDE TRIFLUOROACETATE]"
,,,26.2,"CC(=O)N(Cc1ccc(N2CCCN(C)CC2)nc1)c1ccc(F)cc1 [Compound 226, N-(4-fluorophenyl)-N-{[6-(4-methyl-1,4-diazepan-1-yl)pyridin-3-yl]methyl}acetamide]"
,,,30,"CN1CCN(c2ccc(CN(C(=O)NC(C)(C)C)c3ccc(F)cc3)cn2)CC1 [Compound 126, N′-(tert-butyl)-N-(4-fluorophenyl)-N-{[6-(4-methylpiperazin-1-yl)pyridin-3-yl]methyl}urea]"
